The values below come from PubChem BioAssay (NCI).

What all share (assay): NCI anticancer screen, dose series, 48 h
For experiment [1], the system named is NCI-H23 lung.
The subject of experiment [2] is K-562 leukemia.
Experiment [3] has as its system SK-MEL-2 melanoma.
Experiment [4] relates to NCI-H522 lung.
For experiment [5], the system named is SNB-75 CNS.
Experiment [6] concerns MALME-3M melanoma.
In experiment [7] the test system is SK-MEL-28 melanoma.
Experiment [8] has as its system TK-10 renal.
The subject of experiment [9] is PC-3 prostate.
Experiment [10] has as its system NCI/ADR-RES ovarian.

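Protocol summary: plate cells (96-well), add compound at 5 concentrations, incubate 48 h, interpolate endpoints linearly. At the GI50, growth is halved. TGI: total growth inhibition.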 Where a SMILES comes first, the peptide text is derived from it. The star is where a group is joined. Boc = CC(C)(C)OC(=O)*

As for `COc1cc2c(cc1OC)C(C(CO)CO)N(CC(O)CCl)CC2` (stereo not drawn), the TGI in experiment [1], in experiment [2], in experiment [3], in [4], in experiment [5] and in [6] was greater than 100 µM throughout. The TGI in [7] and in experiment [8] was greater than 100 µM each time.
With `CC(=O)OCCCOCn1c(Cc2ccccc2)c(C)c(=O)[nH]c1=O`, the TGI in [9], in [1], in experiment [2], in experiment [3], in [4] and in [5] was greater than 100 µM in each case. For the same molecule, the TGI in experiment [6], in experiment [7] and in experiment [8] was greater than 100 µM in each case.
For the molecule `COC(=O)C(Cc1c[nH]c2ccccc12)NC(=O)C(Cc1c[nH]c2ccccc12)NC(=O)C(Cc1c[nH]c2ccccc12)NC(=O)C(Cc1c[nH]c2ccccc12)NC(=O)C(Cc1c[nH]c2ccccc12)NC(=O)C(Cc1c[nH]c2ccccc12)NC(=O)OC(C)(C)C` (stereo not drawn) (Boc-WWWWWW-OMe; configuration not given here), the TGI in [9], in experiment [1], in experiment [2], in experiment [3], in [4] and in experiment [5] was greater than 100 µM in each case. The TGI in experiment [6] is greater than 100 µM; in experiment [7], 31.1 µM; in [8] it was greater than 100 µM.
Take `OC(c1cc2ccccc2o1)c1cc2ccccc2s1` (stereo not drawn): the TGI in experiment [9], in experiment [10], in experiment [1], in [2], in experiment [3] and in experiment [4] was greater than 10 µM throughout. Moreover, the TGI in [5], in experiment [7] and in experiment [8] was greater than 10 µM in each case.
Regarding `CCOC(=O)c1cc(-c2cc(OC)c(OC)c([N+](=O)[O-])c2)c([N+](=O)[O-])n1C`, the TGI in experiment [10], in experiment [1], in experiment [2], in experiment [3], in experiment [4] and in experiment [5] was greater than 10 µM throughout. Moreover, the TGI in [6] and in experiment [8] was greater than 10 µM in each case.
As to `Nc1ncnc2c1nnn2C1C=CC(COS(N)(=O)=O)C1` (stereo not drawn), the TGI was 26.9 µM in experiment [9]; greater than 100 µM in experiment [10]; 18.2 µM in experiment [1]; greater than 100 µM in [2]; 21.4 µM in experiment [3]; 39.3 µM in experiment [5]. Also, the TGI in experiment [6] was greater than 100 µM; in experiment [7], 26.2 µM; in experiment [8], 36.4 µM.
In the case of `CC(C)/C(Cl)=N\OC(=O)Nc1ccccc1F`, the TGI in experiment [9] is 30.9 µM; in [10], 30.7 µM; in experiment [1], 33.7 µM; in experiment [2] it was 6.52 µM; in [3] it was 33.2 µM; in [5] it was 23.1 µM. Besides, the figures for the TGI in experiment [6], in experiment [7] and in [8] were 8.72 µM, 30.4 µM and 27.6 µM, respectively.
For the molecule `O=C1Nc2ccccc2C12CCNC2Cc1ccccc1` (stereo not drawn), the TGI in experiment [1], in experiment [2], in experiment [3], in [5], in [6] and in experiment [7] was greater than 100 µM each time. The molecule also returned a TGI in experiment [8] greater than 100 µM.
As for `CC(=O)OCCOCn1c2c(c(=S)[nH]c1=O)CCC2`, the TGI in experiment [9], in experiment [1], in experiment [2], in [3], in experiment [4] and in experiment [5] was greater than 100 µM each time. Also, the TGI in [6], in experiment [7] and in [8] was greater than 100 µM in each case.
Turning to `COc1ccc(-c2cc(=O)c3cc4c(cc3[nH]2)OCO4)cc1OC`, the TGI in experiment [1], in experiment [2], in experiment [3], in [4], in experiment [5] and in experiment [6] was greater than 100 µM in each case. Besides, the TGI in experiment [7] and in experiment [8] was greater than 100 µM in each case.
Turning to `NC(CCCC(N)P(=O)(O)c1ccccc1)P(=O)(O)c1ccccc1` (stereo not drawn), the TGI in experiment [1], in experiment [2], in experiment [3], in experiment [4], in [5] and in experiment [6] was greater than 261 µM throughout. In addition, the TGI in experiment [7] and in experiment [8] was greater than 261 µM throughout.
`Cc1nc(Nc2ccc(Cl)cc2)sc1C(=O)NNc1ccc([N+](=O)[O-])cc1[N+](=O)[O-]`: the TGI in [1] turned out to be 35.1 µM; in experiment [2] it was 46.1 µM; in [3] it was 32.7 µM; in experiment [4], 29.6 µM; in experiment [5] it was 32.5 µM; in [6], 36.2 µM. The TGI amounted to 34.1 µM in [7] and 37.2 µM in [8].
Consider `C[n+]1c(-c2ccc(/C=N/NC(=N)N/N=C/c3ccc(-c4cn5cc(Cl)ccc5[n+]4C)cc3)cc2)cn2cc(Cl)ccc21`, for which the TGI in experiment [9], in experiment [10], in [2], in [4], in [5] and in experiment [7] was greater than 100 µM in each case. In experiment [8], this molecule returned a TGI greater than 100 µM.
`Cc1cccc2c(=O)c([Se]c3coc4c(C)cccc4c3=O)coc12`: the TGI in experiment [1] is 32.2 µM; in [2] it was greater than 100 µM; in [3], 33.5 µM; in experiment [4], greater than 100 µM; in experiment [5], 31.3 µM; in [6], 33.6 µM. The figures for the TGI in [7] and in experiment [8] were 32.5 µM and 69.7 µM, respectively.
For the molecule `CCOC(=O)C1(C/C=C(/C)Cl)CCCC1=O` (stereo not drawn), the TGI in experiment [1], in experiment [2], in experiment [3], in experiment [4], in experiment [5] and in [6] was greater than 100 µM throughout. Moreover, the TGI in [7] and in experiment [8] was greater than 100 µM each time.
Regarding `O=C(Nc1cccc(-n2ccc3c(NC(=O)c4ccccc4)nccc32)c1)Nc1cc(C(F)(F)F)cc(C(F)(F)F)c1`, the GI50 in experiment [9] was 1580 nM; in experiment [1], 1960 nM; in [2] it was 1680 nM; in experiment [3], 1320 nM; in experiment [4], 830 nM; in experiment [5], 1090 nM. Besides, the GI50 in experiment [6] is 3.09 µM; in experiment [7], 2140 nM; in experiment [8], 1830 nM. Besides, the TGI in experiment [9] is greater than 50 µM; in experiment [1], greater than 50 µM; in experiment [2], greater than 50 µM; in [3] it was 4.68 µM; in experiment [4], 2.69 µM; in experiment [5], 3.89 µM. In addition, the TGI in experiment [6] was 35.8 µM; in [7], greater than 50 µM; in experiment [8], 32.5 µM.
On to `CN1CCCC2(CCCc3ccccc32)C1` (stereo not drawn), for which the TGI in [1], in experiment [2], in experiment [3], in experiment [4], in experiment [5] and in experiment [6] was greater than 100 µM in each case. For the same molecule, the TGI in [7] and in experiment [8] was greater than 100 µM throughout.
For `CC(=O)[C@@]1(C)CC2(CCN(C)CC2)OC1C` (stereo partly drawn), the TGI in experiment [10], in experiment [1], in experiment [2], in experiment [4], in [5] and in [6] was greater than 100 µM throughout. Further, the TGI in [7] and in [8] was greater than 100 µM in each case.
For the molecule `O=C(c1ccco1)N1CCCN(C(=O)c2ccco2)C1=S`, the TGI in experiment [9], in [10], in experiment [1], in experiment [2], in experiment [3] and in experiment [6] was greater than 100 µM in each case. For the same molecule, the TGI in [7] and in experiment [8] was greater than 100 µM each time.
As for `C[C@]12CCC(=O)C=C1CC[C@@H]1[C@@H]2[C@@H](O)C[C@@]2(C)[C@H]1CC[C@]2(O)C(=O)COC(=O)COCC(=O)O`, the TGI in [1], in [2], in experiment [3], in experiment [4], in experiment [5] and in experiment [6] was greater than 100 µM throughout. Also, the TGI in [7] and in [8] was greater than 100 µM in each case.
With `COc1cc2c(c(OC)c1OC)-c1ccc(SC)c(=O)cc1[C@@H](NCc1ccc(C#N)cc1)CC2`, the TGI in experiment [1] is 0.00885 µM; in [2] it was greater than 100 µM; in [4] it was 0.0081 µM; in experiment [5], greater than 100 µM; in [6], greater than 100 µM; in experiment [8], greater than 100 µM.
Take `Clc1ccc(SC(/C=C/NNC2=NC(c3ccccc3)C(c3ccccc3)=NN2)c2ccccc2)cc1` (stereo not drawn): the TGI was 61.6 µM in experiment [1]; 53.1 µM in [2]; 40.7 µM in experiment [3]; 73.7 µM in experiment [4]; 64.7 µM in experiment [5]; 39.8 µM in [6]. Further, the TGI was 69.2 µM in experiment [7] and greater than 100 µM in [8].
Take `BrCCCCCOc1ccc(-c2c3ccccc3c(-c3ccc(OCCCCCBr)cc3)c3ccccc23)cc1`: the TGI in experiment [9], in experiment [10], in experiment [2], in [3], in [5] and in [7] was greater than 100 µM in each case. The molecule further registered a TGI in experiment [8] greater than 100 µM.
`Cc1ccc(S(=O)(=O)N/N=C(\c2nc3ccc(Cl)cc3[nH]c2=O)C(O)c2cccc([N+](=O)[O-])c2)cc1` (stereo not drawn): the TGI in experiment [1], in [2], in experiment [3], in [4], in experiment [5] and in [6] was greater than 100 µM each time. Besides, the TGI in [7] and in [8] was greater than 100 µM in each case.
Regarding `CN(C)c1ccc(C(=C(c2ccc(N(C)C)cc2)c2ccc(N(C)C)cc2)c2ccc(N(C)C)cc2)cc1`, the TGI in experiment [1] was found to be 33.6 µM; in [2], 36.9 µM; in experiment [3] it was 28.5 µM; in experiment [4], 1.12 µM; in experiment [5] it was 27.8 µM; in experiment [6] it was 32.6 µM. The TGI in experiment [7] was 29.4 µM; in [8], 31.5 µM.
On to `Cc1ccsc1/C=N/Nc1nc2ccccc2s1`, for which the TGI in experiment [9] is 50.1 µM; in [10], 77.4 µM; in [1] it was greater than 100 µM; in experiment [2], 34.9 µM; in [3] it was 75.3 µM; in experiment [5] it was 35.6 µM. Also, the TGI in [7] was greater than 100 µM; in experiment [8], 26.9 µM.
As to `CCOC(=O)c1ccc(Nc2c3c(nc4ccccc24)CCCC3)cc1`, the TGI in [9] is greater than 100 µM; in experiment [10], greater than 100 µM; in [1], greater than 100 µM; in [2] it was greater than 100 µM; in [3], greater than 100 µM; in experiment [4] it was greater than 27.7 µM. Also, the TGI was greater than 54.8 µM in [5], greater than 100 µM in experiment [7] and greater than 100 µM in experiment [8].
For the molecule `O=C1c2ccc(O)cc2C(=O)c2ccc(O)cc21`, the TGI in experiment [1] is greater than 100 µM; in experiment [2] it was greater than 100 µM; in experiment [3] it was greater than 100 µM; in experiment [4], greater than 100 µM; in [5] it was 81.5 µM; in [6], greater than 100 µM. Also, the TGI in experiment [7] and in experiment [8] was greater than 100 µM throughout.
Consider `CCOC(=O)C1=CNC(C(=O)OCC)C1c1cccn1-c1ccc(Cl)cc1[N+](=O)[O-]` (stereo not drawn), for which the TGI in [9] was 68.9 µM; in experiment [10], 62.5 µM; in experiment [1], greater than 100 µM; in experiment [2], 85.9 µM; in experiment [3], 34.8 µM; in experiment [4], 35.2 µM. For the same molecule, the TGI in [5] stood at 51.4 µM; in experiment [7], 53.1 µM; in [8], 54.9 µM.
Turning to `CC(C)(C)N=NNc1cn(C2OC(CO)C(O)C2O)c(=O)[nH]c1=O` (stereo not drawn), the TGI in [1], in [2], in [3], in experiment [4], in [5] and in experiment [6] was greater than 100 µM in each case. The TGI in experiment [7] and in experiment [8] was greater than 100 µM each time.
